# In paper PMC10999543, “Identification of kinase modulators as host-directed therapeutics against intracellular methicillin-resistant Staphylococcus aureus” (Frontiers in Cellular and Infection Microbiology, 2024):
# Where two headings read alike, the source gives them in different places.
# Experiments:
# intracellular MRSA = assay type: cell-based, Staphylococcus aureus; conditions: for %GFP+ rep 1 / z-scoreMRSA+ rep 1: replicate 1; for %GFP+ rep 2 / z-scoreMRSA+ rep 2: replicate 2; for %GFP+ rep 3 / z-scoreMRSA+ rep 3: replicate 3; for z-scoreMRSA+ mean: mean of 3 replicates; on %GFP+ rep 1: test concentration or dose not given here; on %GFP+ rep 2: test concentration or dose not given here; on %GFP+ rep 3: test concentration or dose not given here; on effect: test concentration or dose not given here; on z-scoreMRSA+ mean: test concentration or dose not given here; on z-scoreMRSA+ rep 1: test concentration or dose not given here; on z-scoreMRSA+ rep 2: test concentration or dose not given here; on z-scoreMRSA+ rep 3: test concentration or dose not given here
# Procedure, shortened: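 Values are z-scores: GFP-positive HeLa percentage and event count per well against plate statistics, minus the mean DMSO z-score. Wells deviating two-fold from controls were left out of plate means. Infection was at a mean MOI of 6.8, with an overnight compound exposure.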
# HeLa cells = test: Compound screen by flow cytometry: HeLa cell count as surrogate readout of cell viability (z-scoreHeLa); assay type: cell-based, human; conditions: for cell count rep 1 / z-scoreHeLa rep 1: replicate 1; for cell count rep 2 / z-scoreHeLa rep 2: replicate 2; for cell count rep 3 / z-scoreHeLa rep 3: replicate 3; for z-scoreHeLa mean: mean of 3 replicates; on all read-outs here: test concentration or dose not given here
# Procedure, shortened: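 The viability surrogate was the count of fixed HeLa cells by flow cytometry, converted to z-scores against DMSO controls with values deviating two-fold excluded. Before counting, cells had been infected with MRSA for 1 h and cleared of extracellular bacteria with gentamicin. They were then exposed overnight to kinase inhibitors in triplicate.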
# [1] = PKIS compounds raw data, MRSA-infected HeLa cells
# [2] = Yes/No: effect without cell death
# [3] = compound screen, MRSA-infected HeLa cells
# [4] = PKIS compounds raw data, HeLa cell count
# [5] = compound screen, HeLa cell count
# [6] = PKIS compound screen raw data, MRSA-infected HeLa cells
# [7] = PKIS compound screen raw data, HeLa cell count
# [8] = PKIS compound screen, MRSA-infected HeLa cells
# [9] = PKIS compound screen, Yes/No call
# [10] = PKIS compound screen, Yes/No call (effect without cell death)
# [11] = PKIS compound screen, HeLa cell count
smiles,measurement,setting,value
COc1cc(Nc2ncc(-c3ccccc3)o2)cc(OC)c1OC [GW627512B],%GFP+ rep 1,intracellular MRSA; [1],11.0%
same,%GFP+ rep 2,intracellular MRSA; [1],12.1%
same,%GFP+ rep 3,intracellular MRSA; [1],12.6%
same,effect,intracellular MRSA; Yes/No call from z-scoreMRSA+,No
same,hit,intracellular MRSA; [2],No
same,z-scoreMRSA+ mean,intracellular MRSA; [3],-0.71
same,z-scoreMRSA+ rep 1,intracellular MRSA; [3],-0.70
same,z-scoreMRSA+ rep 2,intracellular MRSA; [3],-0.47
same,z-scoreMRSA+ rep 3,intracellular MRSA; [3],-0.97
same,cell count rep 1,HeLa cells; [4],2360
same,cell count rep 2,HeLa cells; [4],2993
same,cell count rep 3,HeLa cells; [4],4653
same,cell death,HeLa cells; Yes/No call from z-scoreHeLa,No
same,z-scoreHeLa mean,HeLa cells; [5],-1.42
same,z-scoreHeLa rep 1,HeLa cells; [5],-2.18
same,z-scoreHeLa rep 2,HeLa cells; [5],-0.96
same,z-scoreHeLa rep 3,HeLa cells; [5],-1.10
Cc1cccc(-c2nc(Nc3ccncc3)c3ccccc3n2)n1 [GW855857X],%GFP+ rep 1,intracellular MRSA; [6],26.0%
same,%GFP+ rep 2,intracellular MRSA; [6],24.5%
same,%GFP+ rep 3,intracellular MRSA; [6],21.6%
same,effect,intracellular MRSA; Yes/No call from z-scoreMRSA+,No
same,hit,intracellular MRSA; [2],No
same,z-scoreMRSA+ mean,intracellular MRSA; [3],0.15
same,z-scoreMRSA+ rep 1,intracellular MRSA; [3],0.17
same,z-scoreMRSA+ rep 2,intracellular MRSA; [3],0.46
same,z-scoreMRSA+ rep 3,intracellular MRSA; [3],-0.18
same,cell count rep 1,HeLa cells; [7],3133
same,cell count rep 2,HeLa cells; [7],3003
same,cell count rep 3,HeLa cells; [7],4517
same,cell death,HeLa cells; Yes/No call from z-scoreHeLa,No
same,z-scoreHeLa mean,HeLa cells; [5],-0.78
same,z-scoreHeLa rep 1,HeLa cells; [5],-0.88
same,z-scoreHeLa rep 2,HeLa cells; [5],-1.00
same,z-scoreHeLa rep 3,HeLa cells; [5],-0.46
Fc1cccc(COc2ccc(Nc3ncnc4cc(-c5ccc[nH]5)sc34)cc2Cl)c1 [GW693881A],%GFP+ rep 1,intracellular MRSA; [1],15.5%
same,%GFP+ rep 2,intracellular MRSA; [1],14.8%
same,%GFP+ rep 3,intracellular MRSA; [1],13.6%
same,effect,intracellular MRSA; Yes/No call from z-scoreMRSA+,No
same,hit,intracellular MRSA; [2],No
same,z-scoreMRSA+ mean,intracellular MRSA; [3],0.17
same,z-scoreMRSA+ rep 1,intracellular MRSA; [3],0.75
same,z-scoreMRSA+ rep 2,intracellular MRSA; [3],0.44
same,z-scoreMRSA+ rep 3,intracellular MRSA; [3],-0.68
same,cell count rep 1,HeLa cells; [4],5481
same,cell count rep 2,HeLa cells; [4],4577
same,cell count rep 3,HeLa cells; [4],7047
same,cell death,HeLa cells; Yes/No call from z-scoreHeLa,No
same,z-scoreHeLa mean,HeLa cells; [5],0.30
same,z-scoreHeLa rep 1,HeLa cells; [5],0.64
same,z-scoreHeLa rep 2,HeLa cells; [5],0.23
same,z-scoreHeLa rep 3,HeLa cells; [5],0.04
COc1cc(Nc2nccc(N3CCC(NC(=O)Nc4ccc5c(c4)OCO5)C3)n2)cc(OC)c1OC (stereo not shown) [GSK1379766A],%GFP+ rep 1,intracellular MRSA; [6],17.4%
same,%GFP+ rep 2,intracellular MRSA; [6],18.6%
same,%GFP+ rep 3,intracellular MRSA; [6],19.8%
same,z-scoreMRSA+ mean,intracellular MRSA; [8],-0.04
same,z-scoreMRSA+ rep 1,intracellular MRSA; [8],-0.15
same,z-scoreMRSA+ rep 2,intracellular MRSA; [8],0.0226
same,z-scoreMRSA+ rep 3,intracellular MRSA; [8],0.00377
same,effect,intracellular MRSA; [9],No
same,hit,intracellular MRSA; [10],No
same,effect,"intracellular MRSA; PKIS compound screen, Yes/No call on z-scoreMRSA+",No
same,z-scoreMRSA+ mean,intracellular MRSA; PKIS compound screen,0.27
same,z-scoreMRSA+ rep 1,intracellular MRSA; PKIS compound screen,0.18
same,z-scoreMRSA+ rep 2,intracellular MRSA; PKIS compound screen,0.32
same,z-scoreMRSA+ rep 3,intracellular MRSA; PKIS compound screen,0.30
same,%GFP+ rep 1,intracellular MRSA; [1],28.0%
same,%GFP+ rep 2,intracellular MRSA; [1],27.7%
same,%GFP+ rep 3,intracellular MRSA; [1],28.9%
same,cell count rep 1,HeLa cells; [7],25836
same,cell count rep 2,HeLa cells; [7],29727
same,cell count rep 3,HeLa cells; [7],37841
same,z-scoreHeLa mean,HeLa cells; [11],-0.17
same,z-scoreHeLa rep 1,HeLa cells; [11],0.87
same,z-scoreHeLa rep 2,HeLa cells; [11],-0.94
same,z-scoreHeLa rep 3,HeLa cells; [11],-0.43
same,cell death,HeLa cells; [9],No
same,cell death,"HeLa cells; PKIS compound screen, Yes/No call on z-scoreHeLa",No
same,z-scoreHeLa mean,HeLa cells; PKIS compound screen,0.15
same,z-scoreHeLa rep 1,HeLa cells; PKIS compound screen,0.05
same,z-scoreHeLa rep 2,HeLa cells; PKIS compound screen,-0.13
same,z-scoreHeLa rep 3,HeLa cells; PKIS compound screen,0.53
same,cell count rep 1,HeLa cells; [4],6133
same,cell count rep 2,HeLa cells; [4],5809
same,cell count rep 3,HeLa cells; [4],6429
NS(=O)(=O)c1ccc(N/C=C2\C(=O)Nc3ccc4ncsc4c32)cc1 [GW297361X],effect,intracellular MRSA; [9],No
same,hit,intracellular MRSA; [10],No
same,z-scoreMRSA+ mean,intracellular MRSA; PKIS compound screen,0.46
same,z-scoreMRSA+ rep 1,intracellular MRSA; PKIS compound screen,0.87
same,z-scoreMRSA+ rep 2,intracellular MRSA; PKIS compound screen,1.17
same,z-scoreMRSA+ rep 3,intracellular MRSA; PKIS compound screen,-0.68
same,%GFP+ rep 1,intracellular MRSA; [1],15.9%
same,%GFP+ rep 2,intracellular MRSA; [1],17.0%
same,%GFP+ rep 3,intracellular MRSA; [1],13.6%
same,cell death,HeLa cells; [9],No
same,z-scoreHeLa mean,HeLa cells; PKIS compound screen,-1.04
same,z-scoreHeLa rep 1,HeLa cells; PKIS compound screen,-1.65
same,z-scoreHeLa rep 2,HeLa cells; PKIS compound screen,-0.59
same,z-scoreHeLa rep 3,HeLa cells; PKIS compound screen,-0.88
same,cell count rep 1,HeLa cells; [4],2950
same,cell count rep 2,HeLa cells; [4],3493
same,cell count rep 3,HeLa cells; [4],5130
Cc1ccc(C(=O)Nc2ccc(Nc3ccnc4cc(-c5nccs5)ccc34)cc2O)cc1 [GW494702A],effect,intracellular MRSA; [9],No
same,hit,intracellular MRSA; [10],No
same,z-scoreMRSA+ mean,intracellular MRSA; PKIS compound screen,-1.32
same,z-scoreMRSA+ rep 1,intracellular MRSA; PKIS compound screen,-1.18
same,z-scoreMRSA+ rep 2,intracellular MRSA; PKIS compound screen,-1.22
same,z-scoreMRSA+ rep 3,intracellular MRSA; PKIS compound screen,-1.55
same,%GFP+ rep 1,intracellular MRSA; [1],21.0%
same,%GFP+ rep 2,intracellular MRSA; [1],19.7%
same,%GFP+ rep 3,intracellular MRSA; [1],18.9%
same,cell death,HeLa cells; [9],No
same,z-scoreHeLa mean,HeLa cells; PKIS compound screen,0.98
same,z-scoreHeLa rep 1,HeLa cells; PKIS compound screen,0.32
same,z-scoreHeLa rep 2,HeLa cells; PKIS compound screen,1.13
same,z-scoreHeLa rep 3,HeLa cells; PKIS compound screen,1.50
same,cell count rep 1,HeLa cells; [4],6577
same,cell count rep 2,HeLa cells; [4],7707
same,cell count rep 3,HeLa cells; [4],7965
